Experiments:
hNAMPT protein = hNAMPT protein (Homo sapiens (Human), UniProt P43490); assay: NAMPT enzyme assay (TR-FRET/HTRF, BodiPY ligand, anti 6His-Tb); assay type: binding; settings: for IC50: NAMPT IC50 range class, read-out: IC50; for inhibition at 1 µM: compound concentration 1 μM, read-out: Percent Inhibition
Source text: As discussed above, the invention provides compounds that are useful as inhibitors of the enzyme NAMPT. The NAMPT inhibition of a compound of the invention can be measured using a variety of methods known in the art. For example, the ability of a compound of the invention to inhibit NAMPT enzyme activity can be measured using a homogeneous time resolved fluorescence (HTRF) assay using hNAMPT protein and anti 6His-Tb in buffer treated with a compound of the invention (or control e.g., DMSO) and BodiPY ligand. The TR-FRET signal can be measured using a high throughput microplate reader (e.g., Pherastar). Excitation can be carried out at 320 nm. The percent inhibition value at a single concentration of compound of the invention can be calculated relative to a control treated sample. A concentration response curve can be generated for each compound of the invention and the curve fitted to generate an IC50 value. […] Cat. No. […] To this solution is added test compounds or vehicle control (DMSO) and BodiPY ligand (structure below). The plate is shaken for 1-2 min, sealed and incubated for 1 hour at rt in the dark. The TR-FRET signal is measured using BMG Pherastar (Lanthascreen protocol on BMG Pherastar). Excitation was carried out at 320 nm, and the ratio of emission of BodiPY (520 nm) to terbium (486 nm) was determined. Concentration response curves are generated by calculating the excitation increase in test compound-treated samples relative to DMSO-treated controls. For the assay method described above, test compound percent inhibition values at a single concentration are calculated relative to control (DMSO) treated samples. Compound concentration response curves are fitted to generate IC50 values from those curves. One skilled in the art will appreciate that these values generated either as percentage inhibition at a single concentration or IC50 values are subject to experimental variation.

PC3 cells = assay: PC3 growth inhibition (Cell-titer glo, 72 hours); assay type: cell-based; settings: Homo sapiens, PC-3, PC3 cells, 72 hours, Cell-titer glo, read-out: Percent Inhibition (PC3 growth inhibition); for inhibition at 1 µM: compound concentration 1 μM; for inhibition at 1.667 µM: compound concentration 1.667 μM
Method: The ability of a compound of the invention to inhibit the growth of cells can be measured using a variety of methods known in the art. For example, the ability of a compound of the invention to inhibit the growth of PC3 cells can be measured. PC3 cells can be plated and incubated overnight under CO2. For each measurement, a compound of the invention (or vehicle e.g., DMSO) can be diluted with AIM serum free medium and added to the cell plate. The cell plate can then be incubated for 72 h under CO2. Cell-titer glo solution can be added and the plates can be incubated protected from light and the amount of luminescences can be measured. Concentration response curves can be generated by calculating the luminescence increase in test compound treated samples relative to DMSO-treated controls. Percentage remaining viability values at a single concentration can be measured. Growth inhibition (GI50) or cell viability (LD50) values can be determined from those curves.
Compounds of the invention were assayed to measure PC3 growth inhibition at a concentration of 1 μM or 1.667 μM (Table 3). To measure PC3 growth inhibition, PC3 cells that were maintained in PRMI1640 growth medium (Life Technologies; Cat. No. 11875) at 37° C. under 5% CO2 are trypsinized and diluted at a density of 8×10^4 cells/ml, 25 ul per well of cells and plated in 384-well black tissue culture plate. The cells are incubated overnight at 37° C. under 5% CO2. For each measurement, a test compounds or vehicle control (DMSO) are diluted with AIM serum free medium and added to the cell plate. Incubate for 72 hours at 37° C. under 5% CO2. 25 μl Cell-titer glo solution (Promega; Cat. No. G8462) is added and the cell plates are incubated for 10 minutes protected from light. The luminescence is measured. Concentration response curves are generated by calculating the luminescence increase in test compound-treated samples relative to DMSO-treated controls. Percentage remaining viability values at a single concentration, growth inhibition (GI50) or cell viability (LD50) values are determined from those curves. One skilled in the art will appreciate that these values are subject to experimental variation.

hNAMPT protein, sequence (P43490 whole entry): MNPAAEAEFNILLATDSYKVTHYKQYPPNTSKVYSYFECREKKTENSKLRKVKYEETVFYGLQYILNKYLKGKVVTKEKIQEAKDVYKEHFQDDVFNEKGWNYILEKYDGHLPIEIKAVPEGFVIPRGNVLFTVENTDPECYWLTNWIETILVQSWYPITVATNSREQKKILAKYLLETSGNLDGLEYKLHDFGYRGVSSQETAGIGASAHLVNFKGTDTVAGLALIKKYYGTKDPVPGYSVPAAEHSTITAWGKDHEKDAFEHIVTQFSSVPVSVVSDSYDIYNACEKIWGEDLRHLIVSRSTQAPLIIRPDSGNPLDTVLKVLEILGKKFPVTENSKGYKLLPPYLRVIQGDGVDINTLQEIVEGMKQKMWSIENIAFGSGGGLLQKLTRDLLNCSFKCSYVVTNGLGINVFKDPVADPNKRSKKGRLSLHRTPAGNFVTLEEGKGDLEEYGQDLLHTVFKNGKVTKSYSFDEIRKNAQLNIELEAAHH

Question: Which results are given for `NCc1nc2ccc(C(=O)NCCCn3ccnc3)cc2nc1-c1ccccc1` [Compound I-10, 2-(aminomethyl)-N-[3-(1H-imidazol-1-yl)propyl]-3-phenylquinoxaline-6-carboxamide]?
Answer: IC50 (hNAMPT protein): 2000 to 10000 nM; inhibition at 1 µM (hNAMPT protein): 23%; inhibition at 1 µM (PC3 cells): 99%

Question: How did the IC50 (hNAMPT protein) turn out when `O=C(NCCCn1ccnc1)c1ccc2nc(N3Cc4ccccc4C3)c(-c3ccccc3)nc2c1` [Compound I-11, 2-(1,3-dihydro-2H-isoindol-2-yl)-N-[3-(1H-imidazol-1-yl)propyl]-3-phenylquinoxaline-6-carboxamide] was run?
Answer: 100 to 500 nM

Question: And the inhibition at 1 µM (hNAMPT protein)?
Answer: 85%

Question: And the inhibition at 1 µM (PC3 cells)?
Answer: -7%

Question: What does the source list for `COc1cccc(-c2nc3cc(C(=O)NCCCc4ncc[nH]4)ccc3nc2N2CCC(O)CC2)c1` [Compound I-12, 2-(4-hydroxypiperidin-1-yl)-N-[3-(1H-imidazol-2-yl)propyl]-3-(3-methoxyphenyl)quinoxaline-6-carboxamide]?
Answer: IC50 (hNAMPT protein): < 100 nM; inhibition at 1 µM (hNAMPT protein): > 99%; inhibition at 1.667 µM (PC3 cells): 2%

Question: With `COc1ccccc1-c1nc2ccc(C(=O)NCCCn3ccnc3)cc2nc1-c1ccccc1` [Compound I-13, N-[3-(1H-imidazol-1-yl)propyl]-2-(2-methoxyphenyl)-3-phenylquinoxaline-6-carboxamide] as the compound, how does the IC50 (hNAMPT protein) read?
Answer: 100 to 500 nM

Question: What about the inhibition at 1 µM (hNAMPT protein) of the same compound?
Answer: 69%

Question: What about the inhibition at 1 µM (PC3 cells) of the same compound?
Answer: -6%

Question: How did the IC50 (hNAMPT protein) turn out when `O=C(NCCCn1ccnc1)c1ccc2nc(-c3ccccc3)c(N3CCS(=O)(=O)CC3)nc2c1` [Compound I-14, 3-(1,1-dioxidothiomorpholin-4-yl)-N-[3-(1H-imidazol-1-yl)propyl]-2-phenylquinoxaline-6-carboxamide] was run?
Answer: 2000 to 10000 nM

Question: What about the inhibition at 1 µM (hNAMPT protein) of the same compound?
Answer: 17%

Question: What about the inhibition at 1 µM (PC3 cells) of the same compound?
Answer: -3%

Question: With `O=C(NCCCn1ccnc1)c1ccc2nc(-c3ccccc3)c(N3CCC4(COC4)C3)nc2c1` [Compound I-15, N-[3-(1H-imidazol-1-yl)propyl]-3-(2-oxa-6-azaspiro[3.4]oct-6-yl)-2-phenylquinoxaline-6-carboxamide] as the compound, how does the IC50 (hNAMPT protein) read?
Answer: 2000 to 10000 nM

Question: What about the inhibition at 1 µM (hNAMPT protein) of the same compound?
Answer: 15%

Question: And the inhibition at 1 µM (PC3 cells)?
Answer: -6%

Question: `O=C(NCc1ccc2[nH]ncc2c1)c1ccc2nc(N3CCOCC3)c(-c3ccc(F)cc3)nc2c1` [Compound I-16, 3-(4-fluorophenyl)-N-(1H-indazol-5-ylmethyl)-2-(morpholin-4-yl)quinoxaline-6-carboxamide] was tested. Which IC50 (hNAMPT protein) did it give?
Answer: 100 to 500 nM

Question: And the inhibition at 1 µM (hNAMPT protein)?
Answer: 84%

Question: And the inhibition at 1.667 µM (PC3 cells)?
Answer: 39%

Question: For `N#CC1CCN(c2nc3cc(C(=O)NCCCn4ccnc4)ccc3nc2-c2ccccc2)C1` (stereo not drawn) [Compound I-17, 3-(3-cyanopyrrolidin-1-yl)-N-[3-(1H-imidazol-1-yl)propyl]-2-phenylquinoxaline-6-carboxamide], which IC50 (hNAMPT protein) is on record?
Answer: 2000 to 10000 nM

Question: And the inhibition at 1 µM (hNAMPT protein)?
Answer: 19%

Question: And the inhibition at 1 µM (PC3 cells)?
Answer: 4%

Question: Which IC50 (hNAMPT protein) does the source give for `O=C(NCCCc1ncc[nH]1)c1ccc2nc(N3CCC(N4CCOCC4)CC3)c(-c3ccccc3)nc2c1` [Compound I-18, N-[3-(1H-imidazol-2-yl)propyl]-2-[4-(morpholin-4-yl)piperidin-1-yl]-3-phenylquinoxaline-6-carboxamide] here?
Answer: < 100 nM

Question: What about the inhibition at 1 µM (hNAMPT protein) of the same compound?
Answer: 100%

Question: What about the inhibition at 1.667 µM (PC3 cells) of the same compound?
Answer: 2%

Question: What does the source list for `O=C(NCCCn1ccnc1)c1ccc2nc(-c3ccc(F)cc3)c(-c3ccc(F)cc3)nc2c1` [Compound I-19, 2,3-bis(4-fluorophenyl)-N-[3-(1H-imidazol-1-yl)propyl]quinoxaline-6-carboxamide]?
Answer: IC50 (hNAMPT protein): 100 to 500 nM; inhibition at 1 µM (hNAMPT protein): 82%; inhibition at 1 µM (PC3 cells): -1%

Question: For `O=C(NCCc1c[nH]cn1)c1ccc2nc(-c3ccc(F)cc3)c(-c3ccc(F)cc3)nc2c1` [Compound I-20, 2,3-bis(4-fluorophenyl)-N-[2-(1H-imidazol-4-yl)ethyl]quinoxaline-6-carboxamide], which IC50 (hNAMPT protein) is on record?
Answer: 1000 to 2000 nM

Question: And the inhibition at 1 µM (hNAMPT protein)?
Answer: 42%

Question: What about the inhibition at 1 µM (PC3 cells) of the same compound?
Answer: 111%

Question: `Cn1cc2c(n1)CN(C(=O)c1ccc3nc(-c4ccc(F)cc4)c(-c4ccc(F)cc4)nc3c1)CC2` [Compound I-22, [2,3-bis(4-fluorophenyl)quinoxalin-6-yl](2-methyl-2,4,5,7-tetrahydro-6H-pyrazolo[3,4-c]pyridin-6-yl)methanone] was tested. Which IC50 (hNAMPT protein) did it give?
Answer: 1000 to 2000 nM

Question: What about the inhibition at 1 µM (hNAMPT protein) of the same compound?
Answer: 41%

Question: What about the inhibition at 1 µM (PC3 cells) of the same compound?
Answer: 96%

Question: With `O=C(NCCCc1ncc[nH]1)c1ccc2nc(N3CCC(N4CCOCC4)CC3)c(-c3ccc(F)cc3)nc2c1` [Compound I-23, 3-(4-fluorophenyl)-N-[3-(1H-imidazol-2-yl)propyl]-2-[4-(morpholin-4-yl)piperidin-1-yl]quinoxaline-6-carboxamide] as the compound, how does the IC50 (hNAMPT protein) read?
Answer: < 100 nM

Question: And the inhibition at 1 µM (hNAMPT protein)?
Answer: 100%

Question: What about the inhibition at 1.667 µM (PC3 cells) of the same compound?
Answer: 2%

Question: With `Cc1nc(C)c(-c2nc3ccc(C(=O)NCCCn4ccnc4)cc3nc2-c2ccccc2)s1` [Compound I-24, 2-(2,4-dimethyl-1,3-thiazol-5-yl)-N-[3-(1H-imidazol-1-yl)propyl]-3-phenylquinoxaline-6-carboxamide] as the compound, how does the IC50 (hNAMPT protein) read?
Answer: 100 to 500 nM

Question: What about the inhibition at 1 µM (hNAMPT protein) of the same compound?
Answer: 88%

Question: What about the inhibition at 1 µM (PC3 cells) of the same compound?
Answer: -8%

Question: With `O=C(NCCCc1cccnc1)c1ccc2nc(N3CCC(O)CC3)c(-c3ccc(F)cc3)nc2c1` [Compound I-25, 3-(4-fluorophenyl)-2-(4-hydroxypiperidin-1-yl)-N-[3-(pyridin-3-yl)propyl]quinoxaline-6-carboxamide] as the compound, how does the IC50 (hNAMPT protein) read?
Answer: < 100 nM

Question: What about the inhibition at 1 µM (hNAMPT protein) of the same compound?
Answer: 98%

Question: What about the inhibition at 1.667 µM (PC3 cells) of the same compound?
Answer: 2%

Question: Which results are given for `Cc1nccn1CCNC(=O)c1ccc2nc(-c3ccc(F)cc3)c(-c3ccc(F)cc3)nc2c1` [Compound I-26, 2,3-bis(4-fluorophenyl)-N-[2-(2-methyl-1H-imidazol-1-yl)ethyl]quinoxaline-6-carboxamide]?
Answer: IC50 (hNAMPT protein): 1000 to 2000 nM; inhibition at 1 µM (hNAMPT protein): 37%; inhibition at 1 µM (PC3 cells): 99%

Question: Which results are given for `CC(C)(C)OC(=O)NCC1CCN(C2CCN(c3nc4ccc(C(=O)NCCCn5ccnc5)cc4nc3-c3ccccc3)CC2)CC1` [Compound I-27, tert-butyl{[1′-(6-{[3-(1H-imidazol-1-yl)propyl]carbamoyl}-3-phenylquinoxalin-2-yl)-1,4′-bipiperidin-4-yl]methyl}carbamate]?
Answer: IC50 (hNAMPT protein): < 100 nM; inhibition at 1 µM (hNAMPT protein): 102%; inhibition at 1 µM (PC3 cells): -1%

Question: `O=C(c1ccc2nc(-c3ccc(F)cc3)c(-c3ccc(F)cc3)nc2c1)N1CCn2nncc2C1` [Compound I-28, [2,3-bis(4-fluorophenyl)quinoxalin-6-yl](6,7-dihydro[1,2,3]triazolo[1,5-a]pyrazin-5(4H)-yl)methanone] was tested. Which IC50 (hNAMPT protein) did it give?
Answer: 2000 to 10000 nM

Question: What about the inhibition at 1 µM (hNAMPT protein) of the same compound?
Answer: 19%

Question: What about the inhibition at 1 µM (PC3 cells) of the same compound?
Answer: 94%

Question: `O=C(c1ccc2nc(-c3ccc(F)cc3)c(-c3ccc(F)cc3)nc2c1)N1CCC(c2cccnc2)C1` (stereo not drawn) [Compound I-29, [2,3-bis(4-fluorophenyl)quinoxalin-6-yl][3-(pyridin-3-yl)pyrrolidin-1-yl]methanone] was tested. Which IC50 (hNAMPT protein) did it give?
Answer: 2000 to 10000 nM

Question: What about the inhibition at 1 µM (hNAMPT protein) of the same compound?
Answer: 36%

Question: And the inhibition at 1 µM (PC3 cells)?
Answer: 96%

Question: For `O=C(NCCCn1ccnc1)c1ccc2nc(N3CCC4(CC3)COC4)c(-c3ccccc3)nc2c1` [Compound I-30, N-[3-(1H-imidazol-1-yl)propyl]-2-(2-oxa-7-azaspiro[3.5]non-7-yl)-3-phenylquinoxaline-6-carboxamide], which IC50 (hNAMPT protein) is on record?
Answer: 100 to 500 nM

Question: And the inhibition at 1 µM (hNAMPT protein)?
Answer: 83%

Question: And the inhibition at 1 µM (PC3 cells)?
Answer: -7%

Question: For `CC1(C)CN(c2nc3ccc(C(=O)NCCCn4ccnc4)cc3nc2-c2ccccc2)CCO1` [Compound I-31, 2-(2,2-dimethylmorpholin-4-yl)-N-[3-(1H-imidazol-1-yl)propyl]-3-phenylquinoxaline-6-carboxamide], which IC50 (hNAMPT protein) is on record?
Answer: < 100 nM

Question: And the inhibition at 1 µM (hNAMPT protein)?
Answer: 89%

Question: And the inhibition at 1 µM (PC3 cells)?
Answer: -7%

— patent US10144742B2 (Millennium Pharmaceuticals, Inc., priority 2014, dated 2018)
